Assay [1] has as its target T1, PIEZO1 receptor in red blood cells (RBCs) (Homo sapiens, UniProt Q92508).
T1 construct: indicating the Ca^2+ influx into the red blood cells (RBCs) through PIEZO1 ion channels; endogenous in cells; host or cells: Red blood cells from venous blood of healthy, MCI and AD donors
In words: Yoda1-induced Ca flux in red blood cells, Fluo4 am, microtiter plate format and fluorometer. Type of assay: cell-based. To be noted: n=4, mean±SEM, plate reader. As to the method: Mann-Whitney test, two-tailed, *p<0.05. […] Signals recorded without addition of Fluo4, with and without Yoda1, were subtracted from their Fluo4 loaded counterparts to give the final read-outs used in normalising the results.
300 μL of blood from the healthy persons and AD patients was collected into the blood sampling tubes with sodium citrate to prevent coagulation. The samples were washed twice with PBS buffer (Ca^2+ and Mg^2+ free) by centrifugation at 300 G for 5 minutes. […] of the red blood cell (RBC) pellet was divided into […], 50 μL for fluorescent staining and 50 μL for the negative control. […] The samples were distributed into the microtitration plate (96-wells, 180 μL per well), after which the ground level of fluorescence (485 nm/535 nm, 1.0 s, Victor Wallac) was measured immediately. 20 μL of DMSO (for vehicle control) or 20 μL of 5 μM Yoda1 (for PIEZO1 activity) was added into the wells, and the fluorescence was measured immediately. The fluorescence signal of the sample having no Fluo4 am was subtracted from the fluorescence signals of the vehicle and Yoda1 samples treated with Fluo4 am. The increase in fluorescence upon addition of Yoda1 was normalized to the signal measured before addition of Yoda1. The normalized increase fluorescence was 2.62±0.42 for healthy and 5.64±0.23 for AD (mean #SEM) (FIG. 3G). […]

The target in assay [2] is T1, PIEZO1 receptor in red blood cells (RBCs). Kind of assay: Yoda1-induced Ca flux in red blood cells, Fluo4 am, flow cytometry (FACS) time-lapse. The format is cell-based. The settings on record: for normalized MFI levels (Fluo4 am median fluorescence intensity normalized on baseline): 10 μM Yoda1, 60 s of recording. On the procedure: The venous blood samples from healthy subjects, patients with mild cognitive impairment (MCI), and patients with Alzheimer's disease (AD) were collected into BD Vacutainer® blood collection tubes containing the K3-EDTA anti-coagulant. 150 μl of whole blood was taken for further processing, washed two times with 10 ml of phosphate-buffered saline (PBS) (5 mins, 300 g, RT (=about 20-25° C.) to remove plasma. After the second wash, the supernatant was removed and 50 μl of red blood cells (RBCs) were transferred to clean falcon tube and resuspended in 200 μl PBS (250 μl total volume of cell suspension). 250 μl of Fluo4 am AM (Thermo Fisher Scientific) fluorescent dye was added and cells were incubated for 30 minutes at 37° C. in dark.
After the incubation, cell suspension was washed twice with 5 ml of PBS, followed by one wash with HBSS (5 mins, 300 g, RT). Supernatant was carefully removed with pipette and 50 μl pellet was resuspended in 450 μl of Hank's Balanced Salt Solution (HBSS) to form 10% cell suspension. 10 μl of 10% cell suspension was transferred to 390 μl of RPMI/FBS (10:1) (400 μl final volume). This cell suspension was further used for flow cytometry time-lapse assessment using CytoFLEX S flow cytometer (Beckman Coulter, USA).
At the start of the recording, at t=0 seconds, baseline fluorescence was recorded for 20 seconds. At t=20 seconds, Yoda1 in DMSO was applied to the sample at the final concentration of 5 or 10 μM. At t=4 minutes and 20 seconds, ionomycin, serving as the positive control, was applied at the final concentration 10 μM. Recording was finished at t=5 minutes 30 seconds.
FIGS. 3A-3C plot the mean values of Ca^2+ signal for each group with 10 μM Yoda1 spanning from BL (t=0 seconds) to t=4 minutes, while the FIGS. 3D-3F show the measurements of individual samples at t=60 seconds.
All flow cytometric data were analyzed using CytExpert Software v 2.4 (Beckman Coulter Inc., CA, USA). Yoda1-induced Ca flux was measured by using Fluo4 am median fluorescence intensity (MFI) of single cells after Yoda1 application at different time points—baseline (before application of Yoda1 at 10 μM concentrations), and every 20 sec of the recording.
Data were analyzed using GraphPad Prism Software (CA, USA). Statistical analysis was performed using Mann-Whitney test, two-tailed. The data are presented as mean±SEM.
(In general: In flow cytometry, cells or beads pass a laser one at a time.)

One compound from patent publication US20250231178A1, “A BIOMARKER FOR DETERMINING ALZHEIMER'S DISEASE” (UNIVERSITY OF EASTERN FINLAND, priority 2022, published 2025) can be followed below.

T1 sequence (Q92508 whole entry): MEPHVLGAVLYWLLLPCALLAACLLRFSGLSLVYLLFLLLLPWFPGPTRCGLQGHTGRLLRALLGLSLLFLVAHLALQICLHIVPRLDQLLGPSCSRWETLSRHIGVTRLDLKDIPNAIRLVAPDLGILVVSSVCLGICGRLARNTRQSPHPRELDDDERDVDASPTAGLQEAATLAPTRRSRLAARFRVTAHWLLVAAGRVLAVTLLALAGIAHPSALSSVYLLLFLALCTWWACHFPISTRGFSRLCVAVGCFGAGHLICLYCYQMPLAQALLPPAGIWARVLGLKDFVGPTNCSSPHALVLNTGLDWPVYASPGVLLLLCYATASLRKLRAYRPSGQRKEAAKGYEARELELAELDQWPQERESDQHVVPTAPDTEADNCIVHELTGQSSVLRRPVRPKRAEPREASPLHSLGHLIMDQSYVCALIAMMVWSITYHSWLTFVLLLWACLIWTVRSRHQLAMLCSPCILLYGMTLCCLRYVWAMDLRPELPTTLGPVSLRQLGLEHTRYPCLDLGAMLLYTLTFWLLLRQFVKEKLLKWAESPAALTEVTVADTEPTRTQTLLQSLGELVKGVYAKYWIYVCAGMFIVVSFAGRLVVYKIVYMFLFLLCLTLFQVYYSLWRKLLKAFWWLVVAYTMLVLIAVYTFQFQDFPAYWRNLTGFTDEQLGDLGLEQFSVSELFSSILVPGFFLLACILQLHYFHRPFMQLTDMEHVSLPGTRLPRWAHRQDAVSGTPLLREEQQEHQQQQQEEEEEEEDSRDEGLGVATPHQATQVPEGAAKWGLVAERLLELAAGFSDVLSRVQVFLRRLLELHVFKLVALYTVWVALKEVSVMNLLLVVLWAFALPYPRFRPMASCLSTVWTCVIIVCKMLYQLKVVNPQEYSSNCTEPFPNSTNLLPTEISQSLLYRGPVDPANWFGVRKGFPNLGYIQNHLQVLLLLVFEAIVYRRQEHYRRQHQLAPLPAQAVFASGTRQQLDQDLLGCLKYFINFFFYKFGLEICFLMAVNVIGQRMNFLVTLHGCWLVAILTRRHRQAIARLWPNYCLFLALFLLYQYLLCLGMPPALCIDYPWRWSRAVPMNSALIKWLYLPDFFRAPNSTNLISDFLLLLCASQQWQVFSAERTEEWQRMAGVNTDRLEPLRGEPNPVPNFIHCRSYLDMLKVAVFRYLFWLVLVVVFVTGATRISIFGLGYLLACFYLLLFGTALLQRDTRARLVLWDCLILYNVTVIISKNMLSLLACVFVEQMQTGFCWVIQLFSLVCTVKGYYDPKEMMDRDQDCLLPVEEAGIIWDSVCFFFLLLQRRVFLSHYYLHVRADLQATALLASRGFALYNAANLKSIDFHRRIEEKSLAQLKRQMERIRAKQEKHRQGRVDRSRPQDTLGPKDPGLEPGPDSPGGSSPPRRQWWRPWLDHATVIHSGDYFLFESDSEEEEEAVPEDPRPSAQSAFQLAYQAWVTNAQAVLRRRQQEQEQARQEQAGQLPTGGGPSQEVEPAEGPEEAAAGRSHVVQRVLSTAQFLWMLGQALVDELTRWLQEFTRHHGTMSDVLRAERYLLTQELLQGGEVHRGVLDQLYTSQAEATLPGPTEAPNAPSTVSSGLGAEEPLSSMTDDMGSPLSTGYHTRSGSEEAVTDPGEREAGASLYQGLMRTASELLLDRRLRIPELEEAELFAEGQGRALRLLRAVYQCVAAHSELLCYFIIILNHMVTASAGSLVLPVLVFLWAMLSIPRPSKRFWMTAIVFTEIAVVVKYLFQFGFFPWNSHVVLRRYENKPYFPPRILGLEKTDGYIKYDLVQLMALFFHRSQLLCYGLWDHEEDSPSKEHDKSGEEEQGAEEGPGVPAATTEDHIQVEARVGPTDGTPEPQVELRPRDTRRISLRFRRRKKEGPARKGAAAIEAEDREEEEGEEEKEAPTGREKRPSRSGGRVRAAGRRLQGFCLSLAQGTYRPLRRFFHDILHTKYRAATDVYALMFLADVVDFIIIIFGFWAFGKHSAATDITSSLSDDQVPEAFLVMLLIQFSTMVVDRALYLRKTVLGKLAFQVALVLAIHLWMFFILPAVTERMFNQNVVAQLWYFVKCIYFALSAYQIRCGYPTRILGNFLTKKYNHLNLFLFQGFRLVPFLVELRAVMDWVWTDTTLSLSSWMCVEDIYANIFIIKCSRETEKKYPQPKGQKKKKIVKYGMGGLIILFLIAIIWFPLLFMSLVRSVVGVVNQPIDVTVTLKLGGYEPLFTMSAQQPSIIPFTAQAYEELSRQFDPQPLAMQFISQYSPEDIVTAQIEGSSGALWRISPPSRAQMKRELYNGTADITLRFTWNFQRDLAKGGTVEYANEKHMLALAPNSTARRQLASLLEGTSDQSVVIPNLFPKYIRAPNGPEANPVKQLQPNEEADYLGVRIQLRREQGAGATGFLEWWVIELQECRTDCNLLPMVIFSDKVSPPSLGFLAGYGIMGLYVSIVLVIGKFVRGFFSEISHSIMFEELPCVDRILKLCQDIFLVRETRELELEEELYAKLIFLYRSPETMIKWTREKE

For `Clc1cccc(Cl)c1CSc1nnc(-c2cnccn2)s1` [Yoda1, 2-[(2,6-Dichlorophenyl)methylsulfanyl]-5-pyrazin-2-yl-1,3,4-thiadiazole], the “normalized increase fluorescence (signal after Yoda1 normalized to signal before addition)” value in assay [1] (5 μM Yoda1, RBCs of AD patients) was found to be 5.64±0.23; in assay [1] (5 μM Yoda1, RBCs of healthy persons) it was 2.62±0.42. The “normalized MFI levels (Fluo4 am median fluorescence intensity normalized on baseline)” value in assay [2] (RBCs of AD patients, n=21, mean±SEM) stood at 8.57±0.6; in assay [2] (RBCs of MCI patients, n=26, mean±SEM), 7.9±0.48; in assay [2] (RBCs of control (healthy) subjects, n=23, mean±SEM), 5.64±0.27. Besides, the “time at which maximum Fluo4 am MFI levels were reached” value in assay [2] (10 μM Yoda1 applied at 20 s of recording, levels remained similar till end of 4 min recording) is recorded as at most 60 s.
